Experimental data published in patent US20260069530A1, “METHODS OF TREATING PRIMARY LIVER TUMORS WITH NATURAL KILLER CELLS EXPRESSING A CYTOTOXIC RECEPTOR COMPLEX” (NKARTA, INC., priority 2018, published 2026).

Experiments:
Huh-7 = assay: sorafenib dose-response against HCC cell lines; settings: read-out: EC50 (concentration to achieve 50% cytotoxicity); FIG. 7B
NKG2D ligands = assay: total NKG2D ligand expression on HCC cell lines, flow cytometry with NKG2D-Fc; format: cell-based, human
From the text: (§1) FIGS. 17A-17N relate to expression of total NKG2D ligands and PD-L1 in relation to sorafenib concentration. FIGS. 17A-17F depict flow cytometry data related to changes in total NKG2D ligand expression in the indicated tumor cell lines in response to various concentrations of sorafenib (total expression is based on the use of the NKG2D-Fc fusion, so detection is of any ligand NKG2D could bind). FIGS. 17G-17L depict flow cytometry data related to changes in PD-L1 expression in the indicated tumor cell lines in response to various concentrations of sorafenib. FIGS. 17M and 17N are line graphs that summarize the flow cytometry data.
(§2) FIGS. 18A-18T relate to expression of total NKG2D ligands and PD-L1 in relation to Interferon gamma (IFNg) concentration. FIGS. 18A-18I depict flow cytometry data related to changes in total NKG2D ligand expression in the indicated tumor cell lines in response to various concentrations of IFNg (total expression is based on the use of the NKG2D-Fc fusion, so detection is of any ligand NKG2D could bind). […]
(§3) To investigate a possible mechanism of action regarding the sensitivity of hepatocellular carcinoma cells to sorafenib, the expression of the total population of NKG2D ligands on each cell line was measured in response to various doses of sorafenib. The total population of NKG2D ligands was detected through the use of the NKG2D-Fc chimeric antibody. […]

PD-L1 = PD-L1 expression on HCC cell lines, flow cytometry; format: cell-based, human
From the text: as §1, §2, §3

SNU-387 cells = assay: sorafenib dose-response against HCC cell lines; settings: read-out: EC50 (concentration to achieve 50% cytotoxicity); FIG. 7B
HL60 cells = assay: HL60 leukemia cell growth in co-culture with NK cells, with or without HDAC inhibitor; format: cell-based; settings: valproic acid added to culture with NK cells expressing the NKG2D CAR (FIG. 35B)
Method: As discussed above, additional agents can be co-administered with engineered NK cells disclosed herein. For example, in several embodiments, histone deacetylase inhibitors are administered with engineered NK cells targeting an NKG2D ligand (or other tumor marker, such as CD123 or CD19). The leukemia cell line was grown alone as a control, co-cultured with NK cells expressing GFP, or co-cultured with NK cells expressing an NKG2D CAR as disclosed herein. By way of non-limiting example, the NKG2D CAR used in this example was NKG2D-OX40-[…]-mbIL15. […] According to additional embodiments, other HDAC inhibitors are used, such as romidepsin (e.g. FR901228), entinostat (e.g., MS-275) phenylbutyrate, belinostat (PDX101), sodium valproate, suberoylanilide hydroxamic acid, or combinations thereof.

Method for HCC cells: NKX101 cells were generated by transduction with a bicistronic virus encoding NKG2D, an intracellular OX40 costimulatory domain, CD33 signaling domain, and membrane-bound IL-15, which supports prolonged cell survival and proliferation. […] Combination with a sub-EC50 concentration of the kinase inhibitor Sorafenib (used here as a non-limiting example of an additional anti-cancer agent), an approved agent for HCC, was tested for additive cytotoxic effect with at low E:T ratios of NKX101 NK cells in vitro at 48 hrs.

`CNC(=O)c1cc(Oc2ccc(NC(=O)Nc3ccc(Cl)c(C(F)(F)F)c3)cc2)ccn1` [sorafenib] was tested, and the EC50 (Huh-7) was 7.96 µM, the “change in total NKG2D ligand expression” value (NKG2D ligands; various doses of sorafenib (FIG. 17M)) was “does not appear to have a substantial impact on the NKG2D ligand expression” and the “change in PD-L1 expression” value (PD-L1; 10 micromolar sorafenib (FIG. 17N)) was “many of the cell lines show an increase in PD-L1 expression”. The EC50 (SNU-387 cells) was 29.4 µM and the “cytotoxic effect of combination” value (HCC cells) was “additive effect”.

For `CCCC(CCC)C(=O)O` [valproic acid], the HL60 cell growth (HL60 cells) was “synergistically interacted with the NK cells expressing the NKG2D CAR dramatically suppress HL-60 cell growth”.

With “interferon gamma: inflammatory cytokine secreted by NK cells once activated” the “change in total NKG2D ligand expression” value (NKG2D ligands; various concentrations of interferon gamma, nine HCC lines (FIG. 18S)) was “there does not appear to be a clear impact of interferon gamma on the expression of the total pool of NKG2D ligands” and the “change in PD-L1 expression” value (PD-L1; higher doses of interferon gamma (FIG. 18T)) was “several cell lines seem to show a trend towards increasing PD-L1 expression with the higher doses of interferon gamma”.
